Experimental data from patent US6495606B1, “Nitric oxide synthase inhibitors” (SmithKline Beecham Corporation, priority 1998, dated 2002).

Experiments:
human iNOS = molecular target: T1, human iNOS (Homo sapiens, UniProt P35228); test: Inhibition of isolated human iNOS; format: biochemical; details: purified human iNOS, haemoglobin absorption assay
T1 construct: made in house
Description: 1. Inhibition of Isolated Human iNOS
The inhibition of purified human iNOS may be determined using a preparation of human iNOS as described in the chapter “Expression if Human Nitric Oxide Synthase Isozymes” by Charles et al in Methods in Enzymology, 1996 Volume 268, 449-460. Activity may be monitored using quantitative absorption changes of haemoglobin as described by R. G. Knowles and J. Dawson in “A Microtitreplate Assay of Human NOS Isoforms” in Methods in Molecular Biology, 1998, Volume 100, 237-242, Nitric Oxide Protocols, Ed M. A. Titheradge, Humana Press, Totowa N.J.

nNOS = molecular target: T2, nNOS (Rattus norvegicus, UniProt P29476); test: Inhibition of nNOS in rat cortical slices (14C-arginine to 14C-citrulline); format: cell-based
T2 construct: rat cerebral cortex slices; from tissue; host or cells: rat cerebral cortex slices (McIlwain-chopped)
T2 sequence (P29476 whole entry): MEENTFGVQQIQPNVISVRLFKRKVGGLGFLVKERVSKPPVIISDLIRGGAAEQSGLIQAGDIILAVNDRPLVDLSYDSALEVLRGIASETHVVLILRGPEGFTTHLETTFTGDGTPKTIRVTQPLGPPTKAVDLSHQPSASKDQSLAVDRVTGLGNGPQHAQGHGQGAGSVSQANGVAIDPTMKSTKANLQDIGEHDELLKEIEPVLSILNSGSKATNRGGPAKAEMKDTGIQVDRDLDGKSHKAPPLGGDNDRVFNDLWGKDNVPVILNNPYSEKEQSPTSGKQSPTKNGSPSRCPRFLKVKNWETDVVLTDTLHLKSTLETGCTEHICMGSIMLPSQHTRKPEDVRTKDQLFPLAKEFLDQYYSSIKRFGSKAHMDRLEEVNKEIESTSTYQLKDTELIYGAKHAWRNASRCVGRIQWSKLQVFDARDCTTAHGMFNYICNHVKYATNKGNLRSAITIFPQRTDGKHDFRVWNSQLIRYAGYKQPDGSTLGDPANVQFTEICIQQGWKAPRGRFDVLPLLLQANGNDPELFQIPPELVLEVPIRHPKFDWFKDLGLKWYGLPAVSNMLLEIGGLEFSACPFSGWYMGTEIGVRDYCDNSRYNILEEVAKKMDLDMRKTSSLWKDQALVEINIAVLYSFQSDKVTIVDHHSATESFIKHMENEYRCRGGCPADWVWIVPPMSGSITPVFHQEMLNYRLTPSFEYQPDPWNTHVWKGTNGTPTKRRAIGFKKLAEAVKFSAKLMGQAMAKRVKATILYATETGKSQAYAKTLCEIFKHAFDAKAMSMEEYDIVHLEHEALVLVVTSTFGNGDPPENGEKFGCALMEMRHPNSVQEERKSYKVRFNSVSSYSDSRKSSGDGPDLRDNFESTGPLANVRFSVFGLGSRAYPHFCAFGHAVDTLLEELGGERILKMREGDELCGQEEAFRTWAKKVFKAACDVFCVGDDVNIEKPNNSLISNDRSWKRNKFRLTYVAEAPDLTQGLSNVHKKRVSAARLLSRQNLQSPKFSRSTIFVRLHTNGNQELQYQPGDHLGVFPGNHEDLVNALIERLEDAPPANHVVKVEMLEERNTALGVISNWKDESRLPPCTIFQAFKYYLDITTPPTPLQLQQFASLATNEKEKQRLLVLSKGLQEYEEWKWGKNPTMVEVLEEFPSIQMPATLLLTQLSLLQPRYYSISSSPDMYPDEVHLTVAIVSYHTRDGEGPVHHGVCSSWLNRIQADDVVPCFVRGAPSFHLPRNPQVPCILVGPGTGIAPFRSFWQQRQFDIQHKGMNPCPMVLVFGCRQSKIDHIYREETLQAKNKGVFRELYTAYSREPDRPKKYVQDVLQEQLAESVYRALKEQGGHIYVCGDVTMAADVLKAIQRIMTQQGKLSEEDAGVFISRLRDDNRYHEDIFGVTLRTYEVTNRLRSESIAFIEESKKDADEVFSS
Procedure: 3. Inhibition of nNOS in Rat Cortical Slices
The effects of compounds on nNOS in rat brain slices was determined as described in Furfine et al (1994) J. Biol. Chem. 269, 26677-26683 and Lizasoain et al (1995) J. Neurochem. 64, 636-642. KCl (54 mM)—stimulated NO synthesis was measured by the conversion of 14C-arginine to 14C-citrulline over a 2 h period at 37° C. in Mcllwain—chopped (0.2 mm ×0.2 mm) rat cerebral cortex slices, following a 1 h preincubation period in the absence of compound or high KCl.

iNOS = molecular target: T3, iNOS (Rattus norvegicus, UniProt Q06518); test: Inhibition of iNOS in situ in rat aortic rings (LPS-induced, endothelium-denuded, ring tension); format: cell-based
T3 construct: endothelium-denuded rings were exposed to LPS; from tissue; host or cells: rat thoracic aorta rings, endothelium-denuded, LPS-treated
T3 sequence (Q06518 whole entry): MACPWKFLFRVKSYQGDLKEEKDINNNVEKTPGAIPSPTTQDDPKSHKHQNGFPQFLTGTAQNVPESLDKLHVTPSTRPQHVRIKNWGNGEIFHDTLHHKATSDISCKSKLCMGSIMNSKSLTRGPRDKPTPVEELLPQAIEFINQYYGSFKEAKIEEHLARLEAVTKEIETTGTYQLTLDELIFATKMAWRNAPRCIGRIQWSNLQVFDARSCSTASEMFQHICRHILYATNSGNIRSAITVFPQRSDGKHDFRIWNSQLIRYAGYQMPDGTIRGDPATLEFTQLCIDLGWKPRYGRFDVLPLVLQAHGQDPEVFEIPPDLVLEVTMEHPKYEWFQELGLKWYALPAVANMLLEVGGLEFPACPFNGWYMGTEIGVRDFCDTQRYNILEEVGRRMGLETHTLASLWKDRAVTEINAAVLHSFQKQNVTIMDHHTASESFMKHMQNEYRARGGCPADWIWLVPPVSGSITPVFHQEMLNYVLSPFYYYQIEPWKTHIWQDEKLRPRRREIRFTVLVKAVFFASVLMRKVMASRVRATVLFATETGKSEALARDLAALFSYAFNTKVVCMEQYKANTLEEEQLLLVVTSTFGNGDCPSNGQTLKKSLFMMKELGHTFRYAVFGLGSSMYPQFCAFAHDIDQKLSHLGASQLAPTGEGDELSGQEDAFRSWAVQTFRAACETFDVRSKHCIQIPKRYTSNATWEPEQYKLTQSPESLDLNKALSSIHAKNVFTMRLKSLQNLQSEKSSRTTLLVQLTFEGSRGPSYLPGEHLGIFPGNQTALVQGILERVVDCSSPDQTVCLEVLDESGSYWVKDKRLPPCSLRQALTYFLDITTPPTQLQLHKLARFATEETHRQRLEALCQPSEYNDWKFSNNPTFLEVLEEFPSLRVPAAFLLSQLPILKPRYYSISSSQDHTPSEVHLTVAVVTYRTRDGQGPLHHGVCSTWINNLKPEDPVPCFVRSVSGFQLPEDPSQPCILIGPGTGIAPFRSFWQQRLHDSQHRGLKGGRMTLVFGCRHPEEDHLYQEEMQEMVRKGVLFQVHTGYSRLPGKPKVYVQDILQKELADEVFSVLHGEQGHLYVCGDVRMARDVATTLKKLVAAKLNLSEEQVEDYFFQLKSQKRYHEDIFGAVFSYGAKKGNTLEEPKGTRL
Procedure: (§1) 2. Inhibition of eNOS and INOS in Rat Aortic Rings
(§2) The inhibition of eNOS and iNOS in situ in rat aortic rings was assessed by measuring the increases in ring tension caused by NO synthase inhibition. For studies of basal tone (reflecting eNOS), rings of thoracic aorta with intact endothelium were prepared as described previously (Rees et at. (1989) Br. J. Pharmol. 96, 418-424) and cumulative concentration curves obtained for the inhibitors in the presence of a threshold concentration of phenylephrine (ED10≈10 nM). For studies of induced smooth muscle tone (reflecting iNOS), endothelium-denuded rings were exposed to LPS (0.1 μg/ml from S. typhosa) in the presence of phenylephrine at approximately ED90 for 6 h as described previously (Rees et al. (1990) Biochem. Biophys. Res. Commun. 173, 541-547). During this time a progressive loss of tone occurred because of iNOS induction. Cumulative concentration curves were then obtained for the inhibitors.

eNOS = molecular target: T4, eNOS (Rattus norvegicus, UniProt Q62600); test: Inhibition of eNOS in situ in rat aortic rings (basal tone, intact endothelium, ring tension); format: cell-based; details: rat aortic rings with intact endothelium, threshold phenylephrine
T4 construct: from tissue; host or cells: rat thoracic aorta rings with intact endothelium
T4 sequence (Q62600 2-1202): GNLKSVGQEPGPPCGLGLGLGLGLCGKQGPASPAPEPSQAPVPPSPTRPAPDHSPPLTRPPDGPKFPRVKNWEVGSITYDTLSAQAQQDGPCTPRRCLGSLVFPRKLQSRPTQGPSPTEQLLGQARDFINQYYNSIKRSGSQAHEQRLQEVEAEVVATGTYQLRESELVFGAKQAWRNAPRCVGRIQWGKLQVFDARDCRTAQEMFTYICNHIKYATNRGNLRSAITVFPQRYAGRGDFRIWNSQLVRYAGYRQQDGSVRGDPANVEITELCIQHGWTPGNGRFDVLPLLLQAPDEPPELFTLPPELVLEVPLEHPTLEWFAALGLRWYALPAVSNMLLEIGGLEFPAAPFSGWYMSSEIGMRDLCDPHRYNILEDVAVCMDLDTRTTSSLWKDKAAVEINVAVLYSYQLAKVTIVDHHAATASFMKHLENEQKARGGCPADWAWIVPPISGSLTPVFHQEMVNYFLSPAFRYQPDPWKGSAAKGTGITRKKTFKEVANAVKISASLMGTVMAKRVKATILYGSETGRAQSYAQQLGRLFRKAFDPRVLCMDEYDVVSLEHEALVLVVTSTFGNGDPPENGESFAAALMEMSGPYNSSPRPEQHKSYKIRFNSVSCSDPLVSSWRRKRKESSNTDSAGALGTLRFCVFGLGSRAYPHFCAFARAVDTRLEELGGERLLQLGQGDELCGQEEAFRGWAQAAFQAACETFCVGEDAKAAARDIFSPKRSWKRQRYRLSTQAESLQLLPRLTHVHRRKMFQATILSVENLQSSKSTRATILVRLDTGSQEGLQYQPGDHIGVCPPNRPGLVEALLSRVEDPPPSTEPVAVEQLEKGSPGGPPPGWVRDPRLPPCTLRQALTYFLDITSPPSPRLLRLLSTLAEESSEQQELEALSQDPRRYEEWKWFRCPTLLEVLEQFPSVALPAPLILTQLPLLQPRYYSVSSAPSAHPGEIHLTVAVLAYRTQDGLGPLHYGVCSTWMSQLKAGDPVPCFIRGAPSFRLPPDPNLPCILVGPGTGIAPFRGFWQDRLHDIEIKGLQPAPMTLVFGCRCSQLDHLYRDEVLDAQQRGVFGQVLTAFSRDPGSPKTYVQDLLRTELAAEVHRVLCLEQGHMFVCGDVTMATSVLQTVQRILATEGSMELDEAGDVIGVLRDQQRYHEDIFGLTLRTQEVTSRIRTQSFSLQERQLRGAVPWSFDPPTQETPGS
Procedure: as §1, §2

[1] = Oral bioavailability and pharmacokinetics in rats; format: in vivo, rat
Procedure: 4. Method for Determining the Oral Bioavailability of iNOS Inhibitor Compounds
Rats (3 animals per time point) were dosed intravenously (10 mg/kg) and orally (50 mg/kg) with test compound in an aqueous solution. Blood samples were taken at time intervals after administration and plasma prepared by centrifugation. Samples were stored at −20° C. until analysis.
Plasma (50 μl) was de-proteinated and compound derivatised with a quaternary ammonium reagent. Samples were then injected onto an HPLC system and compound concentration determined using mass spectrometric detection.
The plasma concentrations obtained by the above method were entered into a pharmacokinetic software package (PKCAL v 1.2s) and the data were fitted using a non-compartmental method. The oral bioavailability of the compounds was determined by comparing the Area Under the Curve (AUC) values calculated by the software for the oral profile with the AUC for the intravenous profile. The half-lives were obtained by fitting the terminal phase time points of the intravenous profile.

T1 sequence (P35228 whole entry): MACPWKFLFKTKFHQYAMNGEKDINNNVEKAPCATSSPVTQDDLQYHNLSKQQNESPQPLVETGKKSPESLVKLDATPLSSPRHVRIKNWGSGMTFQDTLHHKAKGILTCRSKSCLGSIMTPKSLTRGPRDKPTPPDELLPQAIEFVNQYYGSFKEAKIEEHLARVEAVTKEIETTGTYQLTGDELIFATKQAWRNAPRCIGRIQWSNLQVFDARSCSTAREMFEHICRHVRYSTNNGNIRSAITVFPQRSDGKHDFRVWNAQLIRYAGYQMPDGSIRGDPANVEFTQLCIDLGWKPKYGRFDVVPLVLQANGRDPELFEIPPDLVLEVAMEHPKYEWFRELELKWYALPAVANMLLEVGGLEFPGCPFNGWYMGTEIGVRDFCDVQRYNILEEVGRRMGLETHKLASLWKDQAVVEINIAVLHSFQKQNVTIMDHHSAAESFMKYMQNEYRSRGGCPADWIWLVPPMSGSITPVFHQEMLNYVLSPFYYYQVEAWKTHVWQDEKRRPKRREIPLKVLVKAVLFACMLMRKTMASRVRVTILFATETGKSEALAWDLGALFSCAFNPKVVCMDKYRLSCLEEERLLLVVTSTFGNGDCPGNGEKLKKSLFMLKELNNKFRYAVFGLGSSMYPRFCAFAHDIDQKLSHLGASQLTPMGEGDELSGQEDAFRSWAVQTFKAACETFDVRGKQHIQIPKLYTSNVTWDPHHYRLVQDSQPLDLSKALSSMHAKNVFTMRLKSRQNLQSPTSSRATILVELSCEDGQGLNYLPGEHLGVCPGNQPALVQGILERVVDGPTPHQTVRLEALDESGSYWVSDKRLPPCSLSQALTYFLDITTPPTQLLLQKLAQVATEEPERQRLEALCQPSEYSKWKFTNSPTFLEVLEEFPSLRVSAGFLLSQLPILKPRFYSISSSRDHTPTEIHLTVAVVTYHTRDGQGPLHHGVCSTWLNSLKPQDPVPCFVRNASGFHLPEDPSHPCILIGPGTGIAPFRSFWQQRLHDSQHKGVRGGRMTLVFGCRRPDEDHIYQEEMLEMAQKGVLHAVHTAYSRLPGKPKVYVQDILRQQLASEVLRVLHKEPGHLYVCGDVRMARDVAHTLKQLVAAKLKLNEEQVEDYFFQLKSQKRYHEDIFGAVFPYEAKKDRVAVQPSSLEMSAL

**Q.** Which IC50 (human iNOS) does the source give for “S-[(R)-2-(1-Iminoethylamino)propyl]-D-cysteine Dihydrochloride [Example 4]” here?
**A.** 48 µM

**Q.** With “S-[(R)-2-(1-Iminoethylamino)propyl]-L-cysteine Dihydrochloride [Example 1]” as the substance, how does the IC50 (human iNOS) read?
**A.** 2 µM

**Q.** And the IC50 (nNOS; rat cerebral cortex slices, KCl (54 mM)-stimulated NO synthesis, 2 h, 37° C.)?
**A.** > 80 µM

**Q.** What about the “selectivity for iNOS versus nNOS” value (nNOS; rat tissue assays) of the same substance?
**A.** > 300 fold

**Q.** What about the “selectivity iNOS vs eNOS” value (iNOS) of the same substance?
**A.** >75

**Q.** What about the IC50 (iNOS; endothelium-denuded, LPS 0.1 μg/ml 6 h, phenylephrine approx. ED90) of the same substance?
**A.** 0.26 µM

**Q.** And the IC50 (eNOS)?
**A.** > 20 µM

**Q.** What about the half-life ([1]; intravenous 10 mg/kg, terminal phase) of the same substance?
**A.** 2 to 4 h

**Q.** What about the oral bioavailability ([1]; oral 50 mg/kg vs intravenous 10 mg/kg, AUC comparison) of the same substance?
**A.** > 90%

**Q.** Which IC50 (human iNOS) does the source give for “S-[(R/S)-2-(1-Iminoethylamino, 2-Cyclopropyl)ethyl]-L-cysteine Dihydrochloride [Example 7]” here?
**A.** 6.2 µM

**Q.** For “S-[(S)-2-(1-Iminoethylamino)propyl]-D-cysteine Dihydrochloride [Example 3]”, which IC50 (human iNOS) is on record?
**A.** 6.6 µM

**Q.** Which IC50 (human iNOS) does the source give for “S-[(S)-2-(1-Iminoethylamino)propyl]-L-cysteine Dihydrochloride [Example 2]” here?
**A.** 39 µM
